Data published in US20160136109A1, “COMPOSITIONS FOR TISSUE STABILIZATION” (Vatrix Medical, Inc., priority 2008, published 2016).

Key:
[1] = tested on: porcine carotid arteries exposed to porcine pancreatic elastase; assay: Tissue resistance to elastase degradation after treatment; assay type: biochemical; conditions: 0.6% Glut, 0.15% PGG, 20 minutes total treatment (cocktail 20 min or 10 min + 10 min sequential); elastase 3 units/mL 24 hrs 37° C.; compared to saline controls
Method: This example involves model results based on in vitro treatment of tissue samples for period of time that are realistic for in vivo applications. Specifically, tissue resistance to elastase degradation after treatment with various reagents is discussed. Specifically, porcine carotid arteries were treated with saline (control, for 20 minutes), Glut (for 20 minutes), PGG (for 20 minutes), or a combination of the two (Glut+PGG for 20 minutes, or Glut for 10 minutes followed by a separate incubation with PGG for 10 minutes). Concentrations of the reagents used were 0.6% (w/v) for Glut, 0.15% (w/v) for PGG and 9 g/L for physiological saline.
The treated tissue was then exposed to an in vitro elastase digestion assay to subject the treated tissue to digestion for 24 hrs. Briefly, tissue samples were incubated individually with 1 mL of 3 units/mL porcine pancreatic elastase (Elastin Products Company; Owensville, Mo.) dissolved in 100 mM Tris buffer, 1 mM CaCl2, 0.02% NaN3, pH 7.8. Incubation with the elastase was conducted for 24 hrs at 37° C. with orbital shaking at 500 rpm. Because the values shown are percentage of digestion, the lower the value, the better the reagent used performed in resisting elastase degradation. […] It should be noted that the digestion model used in this experiment is a very accelerated and aggressive digestion model.

[2] = tested on: porcine aortic wall exposed to type I collagenase; assay: Tissue resistance to collagenase degradation after treatment; assay type: biochemical; conditions: type I collagenase 150 U/mL, 24 hours, 37° C.; fresh sample over 85% digested
Method: Tissue resistance to collagenase degradation after treatment with various reagents is discussed. Specifically, samples of porcine aortic wall were either left untreated (fresh) or treated with Glut alone or Glut followed by tannic acid (TA). Glut treatment was performed with 0.6% (w/v) Glut for 1 day, and then 0.2% (w/v) Glut for 7 days at room temperature; Glut/TA treatment was performed with 0.6% (w/v) Glut for 1 day, and then 0.2% (w/v) Glut for 7 days at room temperature followed by 0.15% (w/v) TA for 4 days at 37° C. The treated samples were rinsed 3 times (1 hour each) in 100 mL water, and lyophilized to record dry weight. Samples with the amount of ˜15 to 25 mg dry weight were immersed in 1.2 mL of type I collagenase (150 U/mL) dissolved in 50 mM Tris buffer, 10 mM CaCl2, pH 7.4, and incubated at 37° C. with orbital shaking at 650 rpm for 24 hours. Following this exposure to collagenase, samples were centrifuged (10000 rpm, 10 minutes, 4° C.), individually rinsed three times in 1 mL water, lyophilized to obtain dry weight after collagenase, and the percent of digested tissue was calculated.
The percentage of tissue digestion was compared in graphical format in FIG. 4.

[3] = collagen crosslinking/stabilization; cited from earlier work

Row | Structure (SMILES) | percentage digestion by elastase (resistance to degradation) [1] | percent of digested tissue (mass loss) [2] | toxicity [3]
1 | O=CCCCC=O [Glut, Glutaraldehyde] | slightly improved the resistance of the tissue to degradation | over 20% | –
2 | COC(=O)C1=CO[C@@H](O)[C@@H]2C(CO)=CC[C@H]12 [genipin, Genipin] | – | – | relatively non-toxic
